Measurements reported in PMC3271436 (Osteoarthritis and Cartilage, 2008).

Key:
Format in all cases: biochemical
[1] = molecular target: T1, IGFBP-5 protease activity in human osteoarthritic joint fluid (Homo sapiens, UniProt P09871)
T1 sequence (P09871 16-688): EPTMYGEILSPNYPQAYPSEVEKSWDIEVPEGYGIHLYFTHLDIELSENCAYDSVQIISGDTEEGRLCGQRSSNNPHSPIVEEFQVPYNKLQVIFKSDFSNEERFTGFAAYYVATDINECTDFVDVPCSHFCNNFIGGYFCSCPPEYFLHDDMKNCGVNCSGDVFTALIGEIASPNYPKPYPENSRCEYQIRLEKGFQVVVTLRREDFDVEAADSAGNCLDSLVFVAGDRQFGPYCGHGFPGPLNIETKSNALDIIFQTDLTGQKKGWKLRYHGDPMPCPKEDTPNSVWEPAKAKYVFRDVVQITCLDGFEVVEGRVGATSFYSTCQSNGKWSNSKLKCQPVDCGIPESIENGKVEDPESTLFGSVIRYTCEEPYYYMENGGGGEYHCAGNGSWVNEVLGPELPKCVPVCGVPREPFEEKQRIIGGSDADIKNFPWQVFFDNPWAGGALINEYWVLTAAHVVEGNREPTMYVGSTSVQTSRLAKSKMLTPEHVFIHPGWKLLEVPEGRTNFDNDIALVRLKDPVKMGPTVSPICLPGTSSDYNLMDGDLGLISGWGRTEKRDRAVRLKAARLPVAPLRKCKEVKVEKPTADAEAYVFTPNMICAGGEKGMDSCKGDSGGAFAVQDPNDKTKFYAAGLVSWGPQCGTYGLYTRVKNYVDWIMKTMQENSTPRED

[2] = molecular target: T2, purified IGFBP-5 protease from human osteoarthritic joint fluid (complement 1s) (Homo sapiens, UniProt P09871); test: IGFBP-5 cleavage by protease purified from joint fluid
T2 sequence (P09871 16-688): T1 sequence (P09871 16-688)

[3] = molecular target: T3, purified C1s (Calbiochem) (Homo sapiens, UniProt P09871); test: C1s chromogenic assay with purified commercial C1s, substrate S-2765
T3 sequence (P09871 16-688): T1 sequence (P09871 16-688)

Row | Compound | Human Joint Fluid IC50 ([1]; crude joint fluid, 118 ng IGFBP-5, 16 h at 37°C) | Purified Protease IC50 ([2]; protease purified through Con-A step, 118 ng IGFBP-5, 16 h at 37°C) | activity in words against IGFBP-5 protease activity in crude joint fluid ([1]; 0.1 to 360 uM) | C1s inhibition in words [3] | IC50 [3] [µM] | IC50 [2] [µM] | activity in words against the purified joint fluid preparation ([2]; purified joint fluid preparation)
1 | c1cnc2c(c1)ccc1cccnc12 [1,10-phenanthroline] | No Inhibition | No inhibition |  |  |  |  | 
2 | N=C(N)c1ccc2cc(OC(=O)c3ccc(N=C(N)N)cc3)ccc2c1 [FUT175] |  |  | most active | potent C1s inhibitor | 0.07 | 1 | most active
